The nature of assay [1]: Inhibition of Mycobacterium tuberculosis isocitrate lyase.
Assay [2] has as its system Mycobacterium tuberculosis. The assay can be described thus: Antitubercular activity against XDR Mycobacterium tuberculosis. Type of assay: functional.
For assay [3], the system named is Mycobacterium tuberculosis. The assay can be described thus: Antimycobacterial activity against Mycobacterium tuberculosis H37Rv assessed as reduction in bacterial cell growth by resazurin reduction method. Type of assay: functional. (Resazurin is reduced to fluorescent resorufin, in cell work by metabolically active cells.)

In brackets after ≈: the same amount, converted by molar mass. Where only a bound is given, the exact number is not on record here.

A word on the IC50: it is the concentration needed to halve the response being measured. A higher IC50 goes with weaker potency. For orientation: MIC means the lowest concentration found to suppress growth.

In assay [1], `O=c1c(O)c(-c2ccc(O)c(O)c2)oc2cc(O)cc(O)c12` [QUERCETIN] displayed an IC50 of 3.57 µM.

The compound `CC(=O)NC[C@H]1CN(c2ccc(N3CCOCC3)c(F)c2)C(=O)O1` [LINEZOLID] came in with an MIC in assay [2] of 0.125 µg/mL (≈ 0.371 µM).

With H-GWLDVAKKIGKAAFNVAKNFI-OH, the MIC in assay [3] was under 0.98 µg/mL; in assay [2] it was under 0.97 µg/mL.

The values above are taken from ChEMBL document CHEMBL6078612, “Novel strategies based on natural products and synthetic derivatives to overcome resistance in Mycobacterium tuberculosis” (Eur J Med Chem, 2024).
